Two molecules from patent publication US20240382558A1, “PHARMACEUTICAL COMPOSITION FOR PREVENTING OR TREATING INTERSTITIAL CYSTITIS/BLADDER PAIN SYNDROME” (priority 2022, published 2024) can be followed below.

The test system of assay [1] is IC/BPS model rats. Kind of assay: Cystometry (intravesical pressure and urination volume) in HCl-induced IC/BPS model rats. It counts as in vivo, rat. As to the method: Through the catheter, 250 μL of saline (Sham group) or 250 μL of 0.1 M HCl (IC group) was instilled into the bladder and held for 1 minute, and then the bladder was washed twice with saline. The Sham and IC groups were each divided into two groups (n=7-8/group), and 200 μL of saline or 200 μL of RGDS peptide solution (500 mg/L saline solution, MedChemExpress) was administered intraperitoneally. On day 7 after administration, a polyethylene catheter was inserted and retained in the apex of the bladder, and a pressure transducer (MLT0699, ADInstruments Ltd, Dunedin, New Zealand), PowerLab 4/26 (ADInstruments Ltd, Dunedin New Zealand) were connected. A syringe pump (YSP-101, YMC Co., Ltd., Kyoto, Japan) was connected to the pressure transducer to measure intravesical pressure and urination volume while continuously instilling 40 μL/min saline solution into the bladder. The pressure at the urination event peak on the cystometrogram was defined as the maximum intravesical pressure, the peak interval as the urination interval, the pressure immediately after the peak as the basal intravesical pressure, the pressure immediately before the peak as the threshold pressure for urination, and the urination volume at the peak as urine volume per urination event.
A similar study to Example 1 was conducted, except that the RGDS peptide used in Example 1 was replaced with 400 μL of cilengitide solution (6.75 g/L saline solution, Tokyo Kasei). In the cilengitide-administered group, the urination interval was prolonged compared to the group that received instillation of saline (FIG. 3), confirming that frequent urination was ameliorated.

Assay [2] deals with IC/BPS model rats. Description: Pain threshold by electronic von Frey filament on lower abdomen in IC/BPS model rats. It counts as in vivo, rat. The following applies: IC+R group vs IC group; day 5 after administration; average of three measurements; FIG. 4. On the procedure: Sham, IC, and IC+R groups were prepared as in Example 1. On day 5 after administration, the rats were placed in a metabolic cage with a wire mesh bottom and allowed to acclimate for 10 minutes, and the lower abdomen was stimulated with increasing pressure using an electronic von Frey filament (BIO-EVF, Bioseb, Vitrolles, France). The pressure at which an escape response was observed was measured as the pain threshold. This measurement was repeated three times with a 5-minute interval, and the average was calculated. The pain threshold increased in the IC+R group compared to the IC group (FIG. 4), confirming an ameliorating trend of pain.

The mark [3] stands for this setting: among Sham, Sham+R, IC, IC+R groups, 200 μL RGDS peptide solution (500 mg/L) intraperitoneally, day 7.

Consider `CC(C)[C@H]1C(=O)N[C@@H](CCCN=C(N)N)C(=O)NCC(=O)N[C@@H](CC(=O)O)C(=O)N[C@H](Cc2ccccc2)C(=O)N1C` [cilengitide], for which the urination interval entry in assay [1] (cilengitide-administered IC group vs saline group, 400 μL cilengitide solution (6.75 g/L saline), FIG. 3) is listed as “prolonged”.

As to RGDS [RGDS peptide], the “pain threshold (pressure at which an escape response was observed)” value in assay [2] is recorded as “increased”. The urination interval entry in assay [1] (IC+R group vs IC group given saline, 200 μL RGDS peptide solution (500 mg/L saline) intraperitoneally, day 7 after administration, FIGS. 1 and 2) is “significantly prolonged”. Besides, in assay [1] (setting [3]), the basal intravesical pressure result is on record as “did not differ among all groups”, the maximum intravesical pressure result is reported as “did not differ among all groups” and the “threshold pressure for urination” value is on record as “did not differ among all groups”.
